The test system of this experiment is SARS-CoV-2 strain USA-WA1/2020. Briefly: microbe, parasite or virus in culture. The format is cell-based. The note with it: Severe acute respiratory syndrome coronavirus 2, HeLa-ACE2, 24 h, read-out: EC50, uM (Hela).
Where [1] appears, read: HeLa-ACE2 cells, SARS-CoV-2 infection, 24 h, class symbols.
[2] abbreviates: HeLa-ACE2 cells, SARS-CoV-2 infection, 24 h.

Each structure is given as a SMILES string. Read-outs that look alike come from different tables or passages of the source. A value given as a limit tells only on which side of the number the result lay.

The term EC50 denotes the concentration that produces a half-maximal response.

Consider `CC(C)C[C@@H](O)C(=O)N1C[C@@H]2CCC[C@@H]2[C@H]1C(=O)N[C@@H](C[C@@H]1CCNC1=O)C(=O)COC(F)(F)F` [Compound 363, (1S,3aR,6aS)-2-((R)-2-hydroxy-4-methylpentanoyl)-N-((S)-3-oxo-1-((S)-2-oxopyrrolidin-3-yl)-4-(trifluoromethoxy)butan-2-yl)octahydrocyclo-penta[c]pyrrole-1-carboxamide], for which the EC50 under setting [1] is less than 0.05 µM.

Regarding `O=C(NC1CC(F)(F)C1)C(=O)N1CC2(CC2)C[C@H]1C(=O)N[C@@H](C[C@@H]1CCNC1=O)C(=O)COC(F)(F)F` [Compound 588, (S)-5-(2-((3,3-difluorocyclobutyl)-amino)-2-oxoacetyl)-N-((S)-3-oxo-1-((S)-2-oxopyrrolidin-3-yl)-4-(trifluoromethoxy)butan-2-yl)-5-azaspiro[2.4]-heptane-6-carboxamide], under setting [2], the EC50 was in the range of 0.2 to 0.5 µM. Turning to `CC(C)(NC(=O)C(=O)N[C@@H](CC1CCCCC1)C(=O)N[C@@H](C[C@@H]1CCNC1=O)C(=O)COC(F)(F)F)C(F)(F)F` [Compound 212, N1-((S)-3-cyclohexyl-1-oxo-1-(((S)-3-oxo-1-((S)-2-oxopyrrolidin-3-yl)-4-(trifluoromethoxy)butan-2-yl)amino)propan-2-yl)-N2-(1,1,1-trifluoro-2-methylpropan-2-yl)oxalamide], the EC50 under setting [1] is less than 0.05 µM. Consider `C[C@@H]1C[C@H]2[C@H](C[C@@H](C(=O)N[C@@H](C[C@@H]3CCNC3=O)C(=O)COC(F)(F)F)N2C(=O)C(=O)NC(C)(C)C)O1` [Compound 551, (2R,3aS,5S,6aS)-4-(2-(tert-butylamino)-2-oxoacetyl)-2-methyl-N-((S)-3-oxo-1-((S)-2-oxopyrrolidin-3-yl)-4-(trifluoromethoxy)butan-2-yl)hexahydro-2H-furo[3,2-b]pyrrole-5-carboxamide], for which the EC50 (HeLa-ACE2 cells, SARS-CoV-2 infection, 24 h, given as bound) was more than 1 µM.

Regarding `CC(C)[C@H](O)C(=O)N1CC2(CC2)C[C@H]1C(=O)N[C@@H](C[C@@H]1CCNC1=O)C(=O)COC(F)(F)F` [Compound 358, (S)-5-((S)-2-hydroxy-3-methylbutanoyl)-N-((S)-3-oxo-1-((S)-2-oxopyrrolidin-3-yl)-4-(trifluoromethoxy)butan-2-yl)-5-azaspiro-[2.4]heptane-6-carboxamide], the EC50 under setting [1] fell in the range of 0.05 to 0.2 µM. Turning to `O=C(NC1CCNCC1)C(=O)N[C@@H](CC1CC1)C(=O)N[C@@H](C[C@@H]1CCNC1=O)C(=O)COC(F)(F)F` [Compound 232, N1-((S)-3-cyclopropyl-1-oxo-1-(((S)-3-oxo-1-((S)-2-oxopyrrolidin-3-yl)-4-(trifluoromethoxy)butan-2-yl)amino)propan-2-yl)-N2-(piperidin-4-yl)oxalamide], the concentration for a half-maximal effect (EC50) (HeLa-ACE2 cells, SARS-CoV-2 infection, 24 h, bound printed in cell) is more than 1 µM.

`COc1cccc2[nH]c(C(=O)N[C@@H](CCCc3ccccc3)C(=O)N[C@@H](C[C@@H]3CCNC3=O)C(=O)COC(F)(F)F)cc12` [Compound 233, 4-methoxy-N-((S)-1-oxo-1-(((S)-3-oxo-1-((S)-2-oxopyrrolidin-3-yl)-4-(trifluoromethoxy)butan-2-yl)amino)-5-phenylpentan-2-yl)-1H-indole-2-carboxamide]: the EC50 under setting [1] was in the range of 0.05 to 0.2 µM. For `C=CCCC(=O)N1CC2(CC2)C[C@H]1C(=O)N[C@@H](C[C@@H]1CCNC1=O)C(=O)COC(F)(F)F` [Compound 690, (S)-N-((S)-3-oxo-1-((S)-2-oxopyrrolidin-3-yl)-4-(trifluoromethoxy)butan-2-yl)-5-(pent-4-enoyl)-5-azaspiro[2.4]heptane-6-carboxamide], under setting [2], the EC50 was 0.05 to 0.2 µM. Take `CC(C)C[C@H](NC(=O)c1cc2cc(F)ccc2[nH]1)C(=O)N[C@@H](C[C@@H]1CCNC1=O)C(=O)COP(=O)(c1ccccc1)c1ccccc1` [Compound 50, (S)-3-((S)-2-(5-fluoro-1H-indole-2-carboxamido)-4-methylpentanamido)-2-oxo-4-((S)-2-oxopyrrolidin-3-yl)butyl diphenylphosphinate]: the EC50 was 0.2 to 0.5 µM.

Values taken from patent publication US11708348B2, “Protease inhibitors for treatment of coronavirus infections” (The Scripps Research Institute, priority 2021, dated 2023).
